The values below come from paper PMC9323733, “Efficacy of Vafidemstat in Experimental Autoimmune Encephalomyelitis Highlights the KDM1A/RCOR1/HDAC Epigenetic Axis in Multiple Sclerosis” (Pharmaceutics, 2022).

Data set [1] concerns patients and healthy volunteers. Conditions: cited from earlier work.
Data set [2] deals with SJL/J mice infected with TMEV. Nature of the data set: Theiler's murine encephalomyelitis virus (TMEV) model. It is filed as in vivo, mouse. On the procedure:
Susceptible SJL/J mice (6 weeks old), previously anesthetized with isoflurane, were inoculated in the cerebral parenchyma with 2 × 10^6 plaque forming units (pfu) of the Daniel’s strain of TMEV, diluted in 30 μL of Dulbecco’s Modified Eagle Medium (DMEM) supplemented with 5% fetal bovine serum (FBS). The injection takes place in the right hemisphere of the cerebral cortex using a Hamilton syringe coupled to a pipette tip in such a way that it allows for an exposure of the needle of about 2–3 mm; thus, the virus is always injected at the same depth. Sham animals are subjected to the same protocol, but they only received 30 µL of DMEM supplemented with 5% fetal bovine serum. […] Control mice were treated with vehicle [2% v/v Tween-80 + 98% HPβCD (13% w/v)] following the same administration regime (Figure 4a). The animals were weighed every week from the onset of infection and clinical signs were evaluated using the criterion described by Moses Rodriguez (Mayo Clinic), source of the Daniel’s strain of TMEV to assess the severity of the disease by the general appearance: Score 1 = Shaggy and scruffy hair; 2 = scruffy appearance and hunched back; 3 = no spontaneous movement, reduced induced activity; and Gait: Score 1 = mild ataxia with inconsistent waddling gait; 2 = moderate ataxia with consistent waddling gait; 3 = severe ataxia with reduced righting response; 4 = spastic paresis of hind legs. The score of the animals and motor behavior were analyzed by trained observers blind to treatment and experimental groups.
The screening for locomotor activity was performed by analyzing spontaneous motor activity using an Activity Cage (Activity Monitor System Omnitech Electronics, Inc., Columbus, OH, USA) and by evaluating the mice performance in the Rotarod test. The activity cage consists of a four-compartment metacrylate cage, surrounded by sensors in such a way that it registers the movements of the mouse in both vertical and horizontal position and ambulation. The test consists of introducing the mice into two compartments of the cage placed diagonally so as not to interfere with the sensors of the other mouse. During two five-minute cycles (0–5 min, 5–10 min), horizontal activity (HACTV) or vertical activity (VACTV) are recorded. The first cycle evaluates the spontaneous activity in a new environment and the second measures the activity of the animal once habituated to the new environment. This task was performed on days 60, 70, 78, and 86 post-infection. The rotarod (Ugo Basile, Milan, Italia) consists of a rotating cylinder (roll) suspended above a cage floor turning at a constant speed or acceleration. The system is completed with a stopwatch for each compartment that stops when the mouse falls from the roll to a lever on the bottom of the device. One week prior to the test, mice were trained and familiarized with the test for one minute at a constant speed. The length of time that mice stay on the rotating roll is a measure of their balance and motor coordination. The test consists of measuring the time that mice remain on the roll with constant acceleration for a maximum time of five minutes. Mice that developed strategies to stay on the roll (p.e. seeking support on the wall) were excluded from evaluation. The rotarod test was performed on day 72, 78, and 86 post-infection.
Cervical and lumbar spinal cord segments of spinal cords obtained from EAE mice sacrificed on day 17 or 26 post-immunization were divided and processed for inclusion and sectioning in paraffin and for inclusion in an optimal cutting temperature (OCT) compound and future cryosectioning of the samples. Spinal cord segments were immediately fixed with buffered 10% formalin for 48 h, dehydrated and included in paraffin using standard techniques. […]

A further data set has as its system SH-SY5Y cells. The experiment in a line: Human H3 acetylation assay (Western blot), cellular HDAC activity. It is filed as cell-based. Conditions: 1 and 0.1 µM, 2 and 6 h. How it is done: Human H3 acetylation assays: for the determination of global and K9-specific acetylation levels, 500,000 SH-SY5Y cells were seeded in 6-well plates in DMEM/F12 1:1 (Sigma), supplemented with 2 mM glutamine (LabClinics) and 10% FBS (Sigma) and incubated at 37 °C and 5% CO2 in a humid atmosphere. […] After 2 and 6 h of treatment, cells were harvested and centrifuged at 250× g for 4 min at room temperature and cell pellets used for total histone extraction with EpiQuik Total Histone Extraction Kit (Epigentek, Farmingdale, NY, USA) following manufacturer’s instructions. 1 µg of histone extracts were run in MOPS buffer in 12% PAGE (Life Technologies, Carlsbad, CA, USA) and transferred with the iBlot system to nitrocellulose membranes. Transferred blots were stained with the Ponceau S solution (Sigma) and scanned with an Epson Perfection V600 Photo Scanner. Membranes were blocked in blocking buffer (5% skimmed milk in PBS-Tween 0.1%) for 1 h at room temperature, and after blocking blots were incubated with rabbit polyclonal anti-H3K9Ac (1:2000 dilution, Abcam, Cambridge, UK) and rabbit polyclonal anti-H3ac (K9 + K14 + K18 + K23 + K27) (1:2000 dilution, Abcam) overnight at 4 °C in ablocking buffer. […]
For orientation: Immunoblotting shows a protein as a band on a membrane.

For the compound `Nc1nnc(CN[C@@H]2C[C@H]2c2ccc(OCc3ccccc3)cc2)o1` [ORY-2001], the “YKL40 levels in patients” value in data set [1] (AD Phase II trial ETHERAL, relative to placebo) was “significantly reduced relative to placebo”. For the same compound, in data set [1] (BPD, ADHD, ASD and moderate-severe AD, Phase IIa REIMAGINE and REIMAGINE-AD), the aggression entry is on record as “significantly reduced aggression”. The safety in humans result in data set [1] (more than 300 subjects in multiple studies) is given as “has been shown to be safe”. Further, the “safety and tolerability, long-term treatment” value in data set [1] (relapse-remitting and secondary progressive MS, SATEEN) was “safe and well tolerated”. In addition, in data set [2] (p.o. 0.3 and 1.0 mg/kg), the “CD4 and CD8 lymphocytes in spinal cord parenchyma” value is “decreased the accumulation of CD4 and CD8 lymphocytes into the parenchyma”; the body weight result was “did not produce any body weight changes”; the “horizontal activity (activity cage)” value is listed as “significantly improved the motor activity in the horizontal activity”; the “infiltration of immune cells into the spinal cord” value was “diminished after ORY-2001 treatment”. The “other motor deficits (vertical activity, rotarod)” value in data set [2] (p.o. 0.3 and 1.0 mg/kg) is “partially reduced other motor deficits”. In data set [2] (p.o. 0.3 and 1.0 mg/kg, days 72-76 and 79-83 post-infection), the clinical score result is on record as “reduced the clinical score”. Besides, in data set [2] (spinal cord), the astroglial activation result is recorded as “partially limited astroglial activation”, the axon integrity entry is on record as “increased axon integrity” and the “microglial activation (AIF-1 positive cells)” value was “significantly reduced microglial activation”.
`CCCCCCCCc1ccc(CCC(N)(CO)CO)cc1` [FTY720, Fingolimod, reference compound]: the “impact on cellular HDAC activity (acetylated H3 or H3K9 levels)” value with SH-SY5Y cells is reported as “unable to confirm the previous studies reporting that FTY720 or FTY720-P had any significant impact”.
